From patent US20240368173A1, “TRICYCLIC GPR65 MODULATORS” (PATHIOS THERAPEUTICS LIMITED, priority 2021, published 2024) come the findings set out here.

One may read the IC50 as the point on the concentration scale where inhibition reaches its midpoint.

In the first assay the target is human recombinant GPR65 (Homo sapiens, UniProt Q8IYL9). The assay can be described thus: Human GPR65 cAMP HTRF antagonist assay. The format is cell-based.
human recombinant GPR65, sequence (Q8IYL9 whole entry): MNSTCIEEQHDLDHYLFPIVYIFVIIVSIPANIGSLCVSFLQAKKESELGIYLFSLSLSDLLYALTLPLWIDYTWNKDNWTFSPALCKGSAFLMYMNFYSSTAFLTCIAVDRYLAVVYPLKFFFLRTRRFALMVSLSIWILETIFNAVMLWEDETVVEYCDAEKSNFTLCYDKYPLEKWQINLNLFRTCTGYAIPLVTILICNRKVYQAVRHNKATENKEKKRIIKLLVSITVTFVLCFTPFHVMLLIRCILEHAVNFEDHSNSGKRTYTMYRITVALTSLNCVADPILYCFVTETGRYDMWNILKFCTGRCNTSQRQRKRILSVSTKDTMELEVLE
Details: not given
In short, it runs like this: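 Antagonism measured as suppression of the cAMP rise when pH is dropped to 7.2 (control wells pH 7.9) in 1321N1 cells stably carrying human GPR65. Cells in KRH with 1 mM IBMX and 200 μM EDTA saw compound 30 min, then acid stimulation 30 min; HTRF cAMP detection, normalised, 4-parameter logistic IC50.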
On the technique in general: TR-FRET usually uses a lanthanide donor and a delayed reading to cut background.
For the compound `COc1ncc(-c2cc(F)c(NC(=O)N3[C@H]4CC[C@@H]3c3ccnc(F)c3C4)cc2Cl)cc1F` [Compound 219, (5R,8S)-N-(5-Chloro-2-fluoro-4-(5-fluoro-6-methoxypyridin-3-yl)phenyl)-1-fluoro-6,7,8,9-tetrahydro-5H-5,8-epiminocyclohepta[c]pyridine-10-carboxamide], the IC50 was below 500 nM. Still for that read-out and setting: as for `O=C(Nc1cc(Cl)c(-c2cccnc2)cc1F)N1[C@H]2CC[C@@H]1c1n[nH]c(=O)cc1C2` [Compound 136, (6S,9R)-N-(5-Chloro-2-fluoro-4-(pyridin-3-yl)phenyl)-3-oxo-3,5,6,7,8,9-hexahydro-2H-6,9-epiminocyclohepta[c]pyridazine-10-carboxamide], the figure is below 500 nM; as for `COc1ccc(-c2cc(F)c(NC(=O)N3[C@H]4CC[C@@H]3c3ccnc(F)c3C4)cc2F)cn1` [Compound 245, (5R,8S)-N-(2,5-Difluoro-4-(6-methoxypyridin-3-yl)phenyl)-1-fluoro-6,7,8,9-tetrahydro-5H-5,8-epiminocyclohepta[c]pyridine-10-carboxamide], below 500 nM; as for `O=C(Nc1cc(F)c(-c2ccc(F)nc2)cc1F)N1[C@H]2CC[C@@H]1c1c[nH]c(=O)cc1C2` [Compound 243, (6S,9R)-N-(2,5-Difluoro-4-(6-fluoropyridin-3-yl)phenyl)-3-oxo-3,5,6,7,8,9-hexahydro-2H-6,9-epiminocyclohepta[c]pyridine-10-carboxamide], below 500 nM.

`O=C(Nc1cc(Cl)c(-c2cc(F)cnc2F)cc1F)N1[C@H]2CC[C@@H]1c1c[nH]c(=O)cc1C2` [Compound 252, (6S,9R)-N-(5-Chloro-4-(2,5-difluoropyridin-3-yl)-2-fluorophenyl)-3-oxo-3,5,6,7,8,9-hexahydro-2H-6,9-epiminocyclohepta[c]pyridine-10-carboxamide]: the IC50 was below 500 nM.

In the case of `O=C(Nc1cc(Cl)c(-c2ccc3nonc3c2)cc1F)N1[C@@H]2CC[C@H]1C(F)(F)c1c2ccnc1F` [Compound 330, (5R,8S)-N-(4-(Benzo[c][1,2,5]-oxadiazol-5-yl)-5-chloro-2-fluorophenyl)-1,9,9-trifluoro-6,7,8,9-tetrahydro-5H-5,8-epiminocyclohepta[c]pyridine-10-carboxamide], the IC50 was below 500 nM. As for `O=C(Nc1cc(Cl)c(-c2cc3nonc3cc2F)cc1F)N1[C@H]2CC[C@@H]1c1n[nH]c(=O)cc1C2` [Compound 326, (6S,9R)-N-(5-Chloro-2-fluoro-4-(6-fluorobenzo[c][1,2,5]oxadiazol-5-yl)phenyl)-3-oxo-3,5,6,7,8,9-hexahydro-2H-6,9-epiminocyclohepta[c]pyridazine-10-carboxamide], the half-maximal inhibitory concentration (IC50) was below 500 nM. Still for that read-out and setting: as for `COc1ncc(-c2cc(F)c(NC(=O)N3[C@H]4CC[C@@H]3c3n[nH]c(=O)cc3C4)cc2Cl)cc1F` [Compound 207, (6S,9R)-N-(5-Chloro-2-fluoro-4-(5-fluoro-6-methoxypyridin-3-yl)phenyl)-3-oxo-3,5,6,7,8,9-hexahydro-2H-6,9-epiminocyclohepta[c]pyridazine-10-carboxamide], the figure is below 500 nM. As to `O=C(Nc1cc(Cl)c(-c2ccc(OCCC(F)(F)F)nc2)cc1F)N1[C@H]2CC[C@@H]1c1n[nH]c(=O)cc1C2` [Compound 320, (6S,9R)-N-(5-Chloro-2-fluoro-4-(6-(3,3,3-trifluoropropoxy)pyridin-3-yl)phenyl)-3-oxo-3,5,6,7,8,9-hexahydro-2H-6,9-epiminocyclohepta[c]pyridazine-10-carboxamide], the IC50 is below 500 nM. In the case of `O=C(Nc1cc(-c2cncc(F)c2)c(C(F)(F)F)cc1F)N1[C@H]2CC[C@@H]1c1ccnc(F)c1C2` [Compound 256, (5R,8S)-1-fluoro-N-(2-fluoro-5-(5-fluoropyridin-3-yl)-4-(trifluoromethyl)phenyl)-6,7,8,9-tetrahydro-5H-5,8-epiminocyclohepta[c]pyridine-10-carboxamide], the half-inhibitory concentration (IC50) was below 500 nM. Take `O=C(Nc1cc(Cl)c(-c2ccc3nsnc3c2)cc1F)N1[C@H]2CC[C@@H]1c1ccnc(F)c1C2` [Compound 177, (5R,8S)-N-(4-(benzo[c][1,2,5]thiadiazol-5-yl)-5-chloro-2-fluorophenyl)-1-fluoro-6,7,8,9-tetrahydro-5H-5,8-epiminocyclohepta[c]pyridine-10-carboxamide]: the IC50 was below 500 nM. On the same count and under the same terms, for `O=C(Nc1cc(Cl)c(-c2ccc3cnoc3c2)cc1F)N1[C@H]2CC[C@@H]1c1n[nH]c(=O)cc1C2` [Compound 196, (6S,9R)-N-(4-(Benzo[d]isoxazol-6-yl)-5-chloro-2-fluorophenyl)-3-oxo-3,5,6,7,8,9-hexahydro-2H-6,9-epiminocyclohepta[c]pyridazine-10-carboxamide] the value was 500 to 5000 nM.

As to `CC(C)Oc1ccc(-c2cc(F)c(NC(=O)N3[C@H]4CC[C@@H]3c3n[nH]c(=O)cc3C4)cc2Cl)cn1` [Compound 209, (6S,9R)-N-(5-Chloro-2-fluoro-4-(6-isopropoxypyridin-3-yl)phenyl)-3-oxo-3,5,6,7,8,9-hexahydro-2H-6,9-epiminocyclohepta[c]pyridazine-10-carboxamide], the IC50 is below 500 nM.

Turning to `O=C(Nc1cc(Cl)c(-c2ccnc3[nH]ccc23)cc1F)N1[C@H]2CC[C@@H]1c1n[nH]c(=O)cc1C2` [Compound 148, (6S,9R)-N-(5-Chloro-2-fluoro-4-(1H-pyrrolo[2,3-b]345yridine-4-yl)phenyl)-3-oxo-3,5,6,7,8,9-hexahydro-2H-6,9-epiminocyclohepta[c]pyridazine-10-carboxamide], the IC50 was in the range of 500 to 5000 nM. In the case of `O=C(Nc1cc(Cl)c(-c2cnc(F)c(F)c2)cc1F)N1[C@H]2CC[C@@H]1c1ccnc(F)c1C2` [Compound 262, (5R,8S)-N-(5-chloro-4-(5,6-difluoropyridin-3-yl)-2-fluorophenyl)-1-fluoro-6,7,8,9-tetrahydro-5H-5,8-epiminocyclohepta[c]pyridine-10-carboxamide], the IC50 is below 500 nM.

The assay is the same for the next values; noted with them: 1321N1-hrGPR65 cells, cAMP HTRF, assay pH 7.2; read-out: hGPR65 IC50 (Activity of selected compounds according to the invention).
With `CO[C@H]1C[C@@H](Oc2ccc(NC(=O)N3C4CCC3c3n[nH]c(=O)cc3C4)cc2Cl)C1` (mixture of isomers) [Compound 36, (±)-N-(3-Chloro-4-((1s,3S)-3-methoxycyclobutoxy)phenyl)-3-oxo-3,5,6,7,8,9-hexahydro-2H-6,9-epiminocyclohepta[c]pyridazine-10-carboxamide], the IC50 was above 5000 nM. Take `O=C(Nc1cc(Cl)c(C2(O)CC2)cc1F)N1[C@H]2CC[C@@H]1c1ccnc(F)c1C2` [Compound 68, (5R,8S)-N-(5-Chloro-2-fluoro-4-(1-hydroxycyclopropyl)phenyl)-1-fluoro-6,7,8,9-tetrahydro-5H-5,8-epiminocyclohepta[c]pyridine-10-carboxamide]: the IC50 is 500 to 5000 nM.

For the compound `O=C(Nc1ccc(OC2CCC2)c(Cl)c1)N1C2CCC1c1n[nH]c(=O)cc1C2` (racemic) [Compound 14, (±)-N-(3-Chloro-4-cyclobutoxyphenyl)-3-oxo-3,5,6,7,8,9-hexahydro-2H-6,9-epiminocyclohepta[c]pyridazine-10-carboxamide], the IC50 lay in the range of 500 to 5000 nM.

Regarding `Cn1nc2c(cc1=O)CC1CCC2N1C(=O)Nc1cc(Cl)c(Cl)cc1F` (racemic) [Compound 83, (±)-N-(4,5-Dichloro-2-fluorophenyl)-2-methyl-3-oxo-3,5,6,7,8,9-hexahydro-2H-6,9-epiminocyclohepta[c]pyridazine-10-carboxamide], the IC50 lay in the range of 500 to 5000 nM.
